# Laboratory results as given in patent publication US20240287089A1, “Preparation and Uses of 7-Azaindenoisoquinolines” (Purdue Research Foundation, priority 0001, published 2024).
# Like-named read-outs stand apart in the source and are kept apart here.
# Legend:
# SF-539 (CNS) = experiment: NCI-60 cytotoxicity assay; assay type: cell-based; conditions: Homo sapiens; CNS SF-539, 48 h; read-out: Cytotoxicity GI50
# Procedure: (§1) The antiproliferative activities of the indenoisquinoline compounds are determined in the NCI-60 cancer cell lines of the National Cancer Institute Developmental Therapeutics Program (NCI-DTP). […] Cancer cells are incubated with the test compounds at five concentrations ranging from 100 μM to 10 nM for 48 h. After the treated cancer cells are stained with sulforhodamine B dye, the percentage growth is plotted as a function of the common logarithm of the tested compound concentration. […] The approximate average of GI50 values across the entire panel of NCI-60 cancer cell lines for each compound is recorded as the MGM value.
# (§2) NCI-60 Cytotoxicity Assay. Compounds were submitted to the National Cancer Institute Developmental Therapeutic Program to determine their growth-inhibitory potentials in NCI-60 cell lines. All compounds satisfied the pre-screening proceeded into the 5-dose cell viability assay, in which cells were treated for 48 h at 5 dosages ranging from 100 μM to 10 nM.
# OVCAR-3 (Ovarian) = experiment: NCI-60 cytotoxicity assay; assay type: cell-based, human; conditions: Homo sapiens; Ovarian OVCAR-3, 48 h; read-out: Cytotoxicity GI50
# Procedure: as §1, §2
# SN12C (Renal) = experiment: NCI-60 cytotoxicity assay; assay type: cell-based, human; conditions: Homo sapiens; Renal SN12C, 48 h; read-out: Cytotoxicity GI50
# Procedure: as §1, §2
# HOP-62 (Lung) = experiment: NCI-60 cytotoxicity assay; assay type: cell-based, human; conditions: Homo sapiens; Lung HOP-62, 48 h; read-out: Cytotoxicity GI50
# Procedure: as §1, §2
# MCF7 (Breast) = experiment: NCI-60 cytotoxicity assay; assay type: cell-based, human; conditions: Homo sapiens; Breast MCF7, 48 h; read-out: Cytotoxicity GI50
# Procedure: as §1, §2
# DU-145 (Prostate) = experiment: NCI-60 cytotoxicity assay; assay type: cell-based, human; conditions: Homo sapiens; Prostate DU-145, 48 h; read-out: Cytotoxicity GI50
# Procedure: as §1, §2
# UACC-62 (Melanoma) = experiment: NCI-60 cytotoxicity assay; assay type: cell-based, human; conditions: Homo sapiens; Melanoma UACC-62, 48 h; read-out: Cytotoxicity GI50
# Procedure: as §1, §2
# HCT-116 (Colon) = experiment: NCI-60 cytotoxicity assay; assay type: cell-based, human; conditions: Homo sapiens; Colon HCT-116, 48 h; read-out: Cytotoxicity GI50
# Procedure: as §1, §2
# NCI-60 cancer cell lines = experiment: NCI-60 cytotoxicity assay, MGM; assay type: cell-based; conditions: Homo sapiens; read-out: MGM (average GI50 across NCI-60 panel)
# Procedure: as §1, §2
# [1] = human, 6 h, 1 μM; for % Bound: plasma
# Procedure: (§3) Analysis of Plasma Protein Binding and Stability in Human and Mouse Blood Plasma by Equilibrium Dialysis. Frozen plasma (stored at −80° C.) was thawed immediately in a 37° C. water bath. The working solutions of test compound and control compound were prepared in DMSO at 200 μM concentration, and the working solutions were spiked into plasma. The final concentration of compound was 1 μM. The final concentration of DMSO was 0.5%. Ketoconazole was used as positive control in the assay. The dialysis membranes were soaked in ultrapure water for 60 min to separate strips, then in 20% ethanol for 20 min, and then finally in dialysis buffer for 20 min. For equilibrium dialysis, each cell contained plasma sample (150 μL) and was dialyzed against an equal volume of dialysis buffer (PBS). The assay was performed in duplicate. The dialysis plate was sealed and incubated at 37° C. with 5% CO2 at 100 rpm for 6 h. At the end of incubation, samples (50 μL) from both buffer and plasma chambers were transferred to wells of a 96-well plate. Plasma (50 μL) was added to each buffer sample and an equal volume of PBS was added to the collected plasma sample. Cold acetonitrile (400 μL) containing internal standards (IS, 100 nM alprazolam, 200 nM labetalol, 200 nM imipramine and 2 μM ketoprofen) was added to precipitate protein and release compounds. Samples were vortexed for 2 min and centrifuged for 30 min at 3,220 g. An aliquot (100 μL) of the supernatant was diluted with ultra-pure H2O (100 μL), and the mixture was used for LC-MS/MS analysis. For stability determination in plasma, a spiked plasma sample (50 μL) was transferred to a new plate and incubated at 37° C., 5% CO2 for 0 and 6 h. At designated time points, PBS (50 μL) was added and mixed thoroughly, followed by the addition of room temperature quench solution [400 μL of acetonitrile containing internal standards (IS, 100 nM alprazolam, 200 nM labetalol, 200 nM imipramine and 2 μM ketoprofen)] to precipitate protein and release compounds. Samples were vortexed for 2 min and centrifuged for 30 min at 3,220 g. An aliquot (400 μL) of the supernatant was diluted by ultra-pure H2O, and the mixture was used for LC-MS/MS analysis. The concentrations of test compounds in the buffer and plasma chambers were determined from peak area ratios.
# [2] = Maximum tolerated dose determination in NOD SCID mice; assay type: in vivo; conditions: QD x 5; for Body Weight %: 7 days after first dose; for Maximum tolerated dose (MTD): NOD SCID mice, IV, body weight % ≥80%
# Procedure: Maximum Tolerated Dose Determinations. […]. […] Experiments involving 100 mg/kg doses of all three drugs were terminated after one day because of toxicity, while the study involving 50 mg/kg dose of G105 was also halted after one day (FIG. 12). Similarly, the investigation with a 40 mg/kg dose of G105 was discontinued after two days (FIG. 13).
# in vivo = conditions: male, CD1, mouse, iv, 20 mg/kg
# Procedure: Brain Penetration Studies. […] The concentrations were determined by LC-MS/MS with direct measurement of the plasma samples. The brain tissue was homogenized with water using a 3:1 ratio of water (mL) to brain (g) before determination of the concentrations (ng/mL) in the brain homogenates, and the homogenate values then were multiplied by a factor of 4 to obtain the brain concentrations (ng/g).
# [3] = mouse, 6 h, 1 μM; for % Bound: plasma
# Procedure: as §3
# Caco-2 cells = experiment: Caco-2 permeability; assay type: in vitro ADME; conditions: for Papp (A→B) / Papp (B→A): Caco-2, 5 μM, 2 h
# Procedure: Caco-2 Permeability Studies. The Caco-2 plate was removed from the incubator and washed twice with pre-warmed HBSS (10 mM HEPES, pH 7.4), and then incubated at 37° C. for 30 min. The stock solutions of controls compounds were diluted in DMSO to get 1 mM solutions and then diluted with HBSS (10 mM HEPES, pH 7.4) to get 5 μM working solutions. The stock solutions of the test compounds were diluted in DMSO to get 1 mM solutions and then diluted with HBSS (10 mM HEPES, pH 7.4) to get 5 μM working solutions. The final concentration of DMSO in the incubation system was 0.5%. To determine the rate of drug transport in the apical to basolateral direction, 75 μL of 5 μM working solutions of test compounds was added to the Transwell insert (apical compartment) and the wells in the receiver plate (basolateral compartment) were filled with 235 μL of HBSS (10 mM HEPES, pH 7.4). To determine the rate of drug transport in the basolateral to apical direction, 235 μL of 5 μM working solutions of test compounds were to the receiver plate wells (basolateral compartment) and then the Transwell inserts (apical compartment) were filled with 75 μL of HBSS (10 mM HEPES, pH 7.4). Time 0 samples were prepared by transferring 50 μL of 5 μM working solution to wells of the 96-deepwell plate, followed by the addition of 200 μL cold methanol containing appropriate internal standards (IS). The plates were incubated at 37° C. for 2 h. […] An aliquot of 100 μL of the supernatant was mixed with an appropriate volume of ultra-pure water before LC-MS/MS analysis. To determine the Lucifer Yellow leakage after 2 h transport period, stock solution of Lucifer yellow was prepared in ultra-pure water and diluted with HBSS (10 mM HEPES, pH 7.4) to reach the final concentration of 100 μM and then 100 μL of the Lucifer yellow solution was added to each Transwell insert (apical compartment), followed by filling the wells in the receiver plate (basolateral compartment) with 300 μL of HBSS (10 mM HEPES, pH 7.4). The plates were incubated at 37° C. for 30 minutes. Samples (80 μL) were removed directly from the apical and basolateral wells (using the basolateral access holes) and transferred to wells of new 96 wells plates.
# γ-H2AX [4] = experiment: Western blot of RS4;11 tumor xenograft tissue; assay type: in vivo, human
# c-Myc = experiment: Western blot of MOLT-4 tumor xenograft tissue; assay type: in vivo, human
# [5] = assay type: in vivo
# γ-H2AX [6] = experiment: Western blot of MOLT-4 tumor xenograft tissue; assay type: in vivo, human
# Excerpt: In several cases, the levels of c-Myc were more greatly depressed at the lower dose level. For examples, see the 9-hour data for G104 in Tables 17 and 18 and the 6-hour data in Table 19. […] Overall, there are many unexpected and unexplained aspects of the data in Tables 17-19, which are highly variable and also highly dependent on cell type. In particular, drug-induced increases in c-Myc expression relative to control and the larger changes in c-Myc expression seen at lower vs. higher doses are counterintuitive and unexplained.
compound,measurement,setting,value
"COc1cc2c3c(n(CCCN4CCOCC4)c(=O)c2cc1OC)-c1nc2c(cc1C3=O)OCO2 [G101, 2,3-Dimethoxy-6-(3-morpholinopropyl)-5H-[1,3]dioxolo[4″,5″:5′,6′]pyrido[3′,2′:4,5]cyclopenta[1,2-c]isoquinoline-5,12(6H)-dione]",GI50,SF-539 (CNS),230 nM
same,GI50,OVCAR-3 (Ovarian),4610 nM
same,GI50,SN12C (Renal),2720 nM
same,GI50,HOP-62 (Lung),51 nM
same,GI50,MCF7 (Breast),39 nM
same,GI50,DU-145 (Prostate),420 nM
same,GI50,UACC-62 (Melanoma),150 nM
same,GI50,HCT-116 (Colon),460 nM
same,GI50,NCI-60 cancer cell lines,930 nM
"COc1cc2c3c(n(CCCn4ccnc4)c(=O)c2cc1OC)-c1nc2c(cc1C3=O)OCO2 [G102, 6-(3-(1H-Imidazol-1-yl)propyl)-2,3-dimethoxy-5H-[1,3]dioxolo[4″,5″:5′,6′]pyrido[3′,2′:4,5]cyclopenta[1,2-c]isoquinoline-5,12(6H)-dione]",GI50,SF-539 (CNS),39 nM
same,GI50,OVCAR-3 (Ovarian),33400 nM
same,GI50,SN12C (Renal),440 nM
same,GI50,HOP-62 (Lung),29 nM
same,GI50,MCF7 (Breast),26 nM
same,GI50,DU-145 (Prostate),58 nM
same,GI50,UACC-62 (Melanoma),42 nM
same,GI50,HCT-116 (Colon),310 nM
same,GI50,NCI-60 cancer cell lines,780 nM
"COc1cc2c3c(n(CCCNC(C)C)c(=O)c2cc1OC)-c1nc2c(cc1C3=O)OCO2 [G103, 6-(3-(Isopropylamino)propyl)-2,3-dimethoxy-5H-[1,3]dioxolo [4″,5″:5′,6′]pyrido[3′,2′:4,5]cyclopenta[1,2-c]isoquinoline-5,12(6H)-dione]",GI50,SF-539 (CNS),1520 nM
same,% Recovery,[1],88.05%
same,% Bound,[1],82.60%
same,Body Weight %,[2]; 5 mg/Kg IV,92.4%
same,Body Weight %,[2]; 10 mg/Kg IV,93%
same,Body Weight %,[2]; 15 mg/Kg IV,93.9%
same,Body Weight %,[2]; 20 mg/Kg IV,86%
same,Body Weight %,[2]; 30 mg/Kg IV,85.1%
same,Body Weight %,[2]; 40 mg/Kg IV,85.3%
same,Body Weight %,[2]; 50 mg/Kg IV,86.6%
same,Body Weight %,[2]; 60 mg/Kg IV,74%
same,Maximum tolerated dose (MTD),[2],50 mg/kg
same,GI50,OVCAR-3 (Ovarian),14300 nM
same,GI50,SN12C (Renal),10600 nM
same,GI50,HOP-62 (Lung),470 nM
same,GI50,MCF7 (Breast),100 nM
same,GI50,DU-145 (Prostate),1050 nM
same,GI50,UACC-62 (Melanoma),9840 nM
same,GI50,HCT-116 (Colon),1040 nM
same,Cmax,in vivo,3810 ng/g
same,% Recovery,[3],88.02%
same,% Bound,[3],84.11%
same,GI50,NCI-60 cancer cell lines,2190 nM
same,Recovery (%)AP-BL,Caco-2 cells; Caco-2,36.17%
same,Recovery (%)BL-AP,Caco-2 cells; Caco-2,75.54%
same,Papp (A→B),Caco-2 cells,"1.55 10^−6, cm/s"
same,Papp (B→A),Caco-2 cells,"8.95 10^−6, cm/s"
"CCNCCCn1c2c(c3cc(OC)c(OC)cc3c1=O)C(=O)c1cc3c(nc1-2)OCO3 [G104, 6-(3-(Ethylamino)propyl)-2,3-dimethoxy-5H-[1,3]dioxolo[4″,5″:5′,6′]pyrido [3′,2′:4,5]cyclopenta[1,2-c]isoquinoline-5,12(6H)-dione]",GI50,SF-539 (CNS),680 nM
same,% Recovery,[1],83.58%
same,% Bound,[1],81.21%
same,"γ-H2AX/GAPDH, % Relative to Vehicle","γ-H2AX [4]; RS4;11, IV 15 mg/kg, 3 h",133.08 ± 38.59%
same,"γ-H2AX/GAPDH, % Relative to Vehicle","γ-H2AX [4]; RS4;11, IV 15 mg/kg, 9 h",142.66 ± 23.92%
same,"γ-H2AX/GAPDH, % Relative to Vehicle","γ-H2AX [4]; RS4;11, IV 30 mg/kg, 3 h",150.28 ± 29.86%
same,"γ-H2AX/GAPDH, % Relative to Vehicle","γ-H2AX [4]; RS4;11, IV 30 mg/kg, 9 h",220.37 ± 47.79%
same,Body Weight %,[2]; 5 mg/Kg IV,92.4%
same,Body Weight %,[2]; 10 mg/Kg IV,95.2%
same,Body Weight %,[2]; 15 mg/Kg IV,87%
same,Body Weight %,[2]; 20 mg/Kg IV,83.3%
same,Body Weight %,[2]; 30 mg/Kg IV,88.8%
same,Body Weight %,[2]; 40 mg/Kg IV,78.8%
same,Maximum tolerated dose (MTD),[2],30 mg/kg
same,GI50,OVCAR-3 (Ovarian),11300 nM
same,GI50,SN12C (Renal),4610 nM
same,GI50,HOP-62 (Lung),200 nM
same,GI50,MCF7 (Breast),75 nM
same,GI50,DU-145 (Prostate),550 nM
same,GI50,UACC-62 (Melanoma),1810 nM
same,GI50,HCT-116 (Colon),1180 nM
same,Cmax,in vivo,1610 ng/g
same,Vd,in vivo,58.4 L/kg
same,half-life,in vivo,7.06 h
same,"c-Myc/GAPDH, % Relative to Vehicle","c-Myc; MOLT-4, IV 15 mg/kg, 3 h",119.75 ± 13.40%
same,"c-Myc/GAPDH, % Relative to Vehicle","c-Myc; MOLT-4, IV 15 mg/kg, 9 h",88.54 ± 7.63%
same,"c-Myc/GAPDH, % Relative to Vehicle","c-Myc; MOLT-4, IV 30 mg/kg, 3 h",114.32 ± 4.41%
same,"c-Myc/GAPDH, % Relative to Vehicle","c-Myc; MOLT-4, IV 30 mg/kg, 9 h",100.33 ± 2.35%
same,Mean Tumor/Plasma Ratio,"[5]; MOLT-4, 3 h, IV 15 mg/kg",51.3 ± 6.7
same,Mean Tumor/Plasma Ratio,"[5]; MOLT-4, 3 h, IV 30 mg/kg",69.5 ± 8.8
same,Mean Tumor/Plasma Ratio,"[5]; MOLT-4, 9 h, IV 15 mg/kg",125 ± 29
same,Mean Tumor/Plasma Ratio,"[5]; MOLT-4, 9 h, IV 30 mg/kg",106 ± 21
same,% Recovery,[3],80.60%
same,% Bound,[3],83.44%
same,GI50,NCI-60 cancer cell lines,1450 nM
same,Efflux Ratio,Caco-2 cells; Caco-2,9.51
same,Recovery (%)AP-BL,Caco-2 cells; Caco-2,54.60%
same,Recovery (%)BL-AP,Caco-2 cells; Caco-2,81.64%
same,Papp (A→B),Caco-2 cells,"1.69 10^−6, cm/s"
same,Papp (B→A),Caco-2 cells,"16.04 10^−6, cm/s"
same,"γ-H2AX/GAPDH, % Relative to Vehicle","γ-H2AX [6]; MOLT-4, IV 15 mg/kg, 3 h",71.86 ± 8.95%
same,"γ-H2AX/GAPDH, % Relative to Vehicle","γ-H2AX [6]; MOLT-4, IV 15 mg/kg, 9 h",138.12 ± 23.51%
same,"γ-H2AX/GAPDH, % Relative to Vehicle","γ-H2AX [6]; MOLT-4, IV 30 mg/kg, 3 h",47.29 ± 12.20%
same,"γ-H2AX/GAPDH, % Relative to Vehicle","γ-H2AX [6]; MOLT-4, IV 30 mg/kg, 9 h",168.88 ± 39.58%
